We go through one compound from PMC5126721 (ACS Central Science, 2016).

SMILES strings stand for the structures.

The test concerns the target lysozyme (Gallus gallus, UniProt P00698). The experiment in a line: TIMES. It is filed as binding.

lysozyme, sequence (P00698 19-147): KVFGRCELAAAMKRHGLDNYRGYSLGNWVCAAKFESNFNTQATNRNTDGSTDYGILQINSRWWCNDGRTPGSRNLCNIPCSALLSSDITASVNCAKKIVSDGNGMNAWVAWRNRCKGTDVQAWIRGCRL

Turning to `CC(=O)N[C@H]1[C@H](O[C@H]2[C@H](O)[C@@H](NC(C)=O)C(O)O[C@@H]2CO)O[C@H](CO)[C@@H](O[C@@H]2O[C@H](CO)[C@@H](O)[C@H](O)[C@H]2NC(C)=O)[C@@H]1O` (stereo partly shown) [NAG3, N,N′,N″-triacetylchitotriose], the Kd was 39.8 µM.
